Test results: patent US8618082B2, “Lupeol anti-tumor agent and uses thereof” (Wisconsin Alumni Research Foundation, priority 2004, dated 2013)

Legend:
[1] = test system: epidermal ODC protein; test: TPA-induced epidermal ODC protein expression (western blot); type: in vivo, mouse
Description: FIG. 4. Inhibitory effect of Lupeol on TPA-induced epidermal ODC, iNOS and COX-2 protein expression in CD-1 mice: At different times after treatment, the animals were sacrificed, epidermal protein lysate was prepared, and ODC and COX-2 protein expression were determined. Equal loading of protein was confirmed by stripping the immunoblot and reprobing it for β-actin. The immunoblots shown here are representative of three independent experiments with similar results. The values above each lane indicate relative density of the band normalized to β-actin.
(§1) The animals were shaved on the dorsal side of the skin, divided into four groups and treated topically on the shaved area with either 0.4 ml vehicle (acetone), or TPA (3.2 nmol/0.4 ml acetone/animal, v/v), or Lupeol (1 or 2 mg/0.2 ml acetone/animal, w/v) followed 30 min later with TPA (3.2 nmol/0.2 ml acetone/animal). Animals were sacrificed at different times point i.e. 6, 12, 24 and 48 h post TPA treatment. […]
(§2) Epidermis from the whole skin was separated as described earlier (Katiyar et al., 1999) and was homogenized in ice-cold lysis buffer [50 mM Tris-HCl, 150 mM NaCl, 1 mM EGTA, 1 mM EDTA, 20 mM NaF, 100 mM Na3VO4, 0.5% NP-40, 1% Triton X-100, 1 mM PMSF (pH 7.4)] with freshly added protease inhibitor cocktail, Protease Inhibitor Cocktail Set III (Calbiochem, La Jolla, Calif., USA). […] The protein content in the lysates was measured by DC BioRad assay (BioRad Laboratories, Hercules, Calif.) as per the manufacturer's protocol.
For western blot analysis, 40 μg of the protein was resolved over 8-12% polyacrylamide gels and transferred to a nitrocellulose membrane. […] This was followed by incubation with anti-mouse or anti-rabbit secondary antibody horse-radish peroxidase (Amersham Life Sciences, Inc., USA) for 1 h and then washed several times and detected by chemiluminescence ECL kit, (Amersham Life Sciences, Inc., USA) and autoradiography using XAR-5 film obtained from Eastman Kodak Co. (Rochester, N.Y., USA). […]

[2] = test system: p38, Erk1/2, p21, Cyclin D-2 in AsPC-1 cells; test: MAP kinase phosphorylation and p21, Cyclin D-2 expression in AsPC-1 cells; type: cell-based
Description: FIG. 25 depicts effect of Lupeol treatment on the phosphorylation of p38 and Erk1/2 in MAP kinase signaling and p21 and Cyclin D-2 protein expression in AsPC-1 cells.

[3] = test system: IκBα protein; test: TPA-induced phosphorylation and degradation of IκBα (western blot); type: in vivo, mouse
Description: FIG. 6. Inhibitory effect of Lupeol on TPA-induced activation of IKKα, and phosphorylation and degradation of IκBα in CD-1 mice: At different times after treatment, the animals were sacrificed, epidermal cytosolic was prepared, and protein expression was determined. Equal loading was confirmed by stripping the immunoblot and reprobing it for β-actin. The immunoblots shown here are representative of three independent experiments with similar results. The values above each lane indicate relative density of the band normalized to β-actin.
as §1, with “acetone/animal).” for “acetone/animal). Animals were sacrificed at different times point i.e. 6, 12, 24 and 48 h post TPA treatment.”
as §2, with “protocol. […]” for “protocol.”

**Q.** What does the source list for `C=C(C)[C@@H]1CC[C@]2(C)CC[C@]3(C)[C@H](CC[C@@H]4[C@@]5(C)CC[C@H](O)C(C)(C)[C@@H]5CC[C@]43C)[C@@H]12` [Lupeol, Lup-20(29)-en-3β-ol]?
**A.** epidermal ODC protein expression after Lupeol alone ([1]; Lupeol alone up to 2 mg/animal): without any effect on enzyme level; inhibition of TPA-caused induction of epidermal ODC protein expression (densitometry) ([1]; Lupeol-pretreated animals, 1 or 2 mg, all time points): 50-70%; Cyclin-D2 protein expression [2]: decrease in Cyclin-D2 protein expression; expression of p-21 [2]: increase in the expression of p-21; phosphorylation of Erk 1/2 [2]: increase in the phosphorylation of Erk 1/2; phosphorylation of p38 [2]: significant reduction; TPA-induced degradation of IκBα protein ([3]; topical Lupeol 30 min prior to TPA): significant inhibition; TPA-induced phosphorylation of IκB protein (Ser32) ([3]; topical Lupeol prior to TPA): dose dependent inhibition
